Measured values from ChEMBL document CHEMBL2311454, “Discovery and evaluation of novel inhibitors of mycobacterium protein tyrosine phosphatase B from the 6-Hydroxy-benzofuran-5-carboxylic acid scaffold” (J Med Chem, 2013).

Key:
[1] = target: Receptor-type tyrosine-protein phosphatase F (Homo sapiens, UniProt P10586); experiment: Inhibition of LAR (unknown origin) expressed in Escherichia coli using pNPP substrate after 5 mins by spectrophotometric analysis
Laforin = target: T1, Laforin (Homo sapiens, UniProt O95278); experiment: Inhibition of Laforin (unknown origin) expressed in Escherichia coli using pNPP substrate after 5 mins by spectrophotometric analysis
T1 sequence (O95278 whole entry): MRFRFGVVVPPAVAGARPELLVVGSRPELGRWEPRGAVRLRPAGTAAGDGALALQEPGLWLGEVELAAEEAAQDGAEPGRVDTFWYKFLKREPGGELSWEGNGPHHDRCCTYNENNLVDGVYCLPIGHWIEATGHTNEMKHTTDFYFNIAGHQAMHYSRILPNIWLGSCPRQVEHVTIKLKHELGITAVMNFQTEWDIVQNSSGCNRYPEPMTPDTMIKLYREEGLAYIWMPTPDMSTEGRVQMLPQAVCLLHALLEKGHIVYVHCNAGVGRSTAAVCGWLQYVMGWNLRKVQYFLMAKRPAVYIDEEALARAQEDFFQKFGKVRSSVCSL

[2] = target: Receptor-type tyrosine-protein phosphatase alpha (Homo sapiens, UniProt P18433); experiment: Inhibition of PTPalpha (unknown origin) expressed in Escherichia coli using pNPP substrate after 5 mins by spectrophotometric analysis
[3] = target: T2, Tyrosine-protein phosphatase non-receptor type 2 (Homo sapiens, UniProt P17706); experiment: Inhibition of TCPTP (unknown origin) expressed in Escherichia coli using pNPP substrate after 5 mins by spectrophotometric analysis
T2 sequence (P17706 whole entry): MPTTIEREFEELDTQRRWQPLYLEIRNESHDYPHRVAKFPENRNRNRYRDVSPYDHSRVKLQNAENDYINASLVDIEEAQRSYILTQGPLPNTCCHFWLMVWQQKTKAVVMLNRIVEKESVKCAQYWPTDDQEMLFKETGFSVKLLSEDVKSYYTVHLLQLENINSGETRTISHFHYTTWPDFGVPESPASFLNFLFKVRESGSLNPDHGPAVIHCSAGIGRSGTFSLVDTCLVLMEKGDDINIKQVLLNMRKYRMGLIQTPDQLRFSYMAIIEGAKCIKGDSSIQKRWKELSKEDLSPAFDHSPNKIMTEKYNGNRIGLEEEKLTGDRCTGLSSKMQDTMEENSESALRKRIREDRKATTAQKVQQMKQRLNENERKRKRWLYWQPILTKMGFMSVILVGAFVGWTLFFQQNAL

Sequence of Receptor-type tyrosine-protein phosphatase F (P10586 whole entry): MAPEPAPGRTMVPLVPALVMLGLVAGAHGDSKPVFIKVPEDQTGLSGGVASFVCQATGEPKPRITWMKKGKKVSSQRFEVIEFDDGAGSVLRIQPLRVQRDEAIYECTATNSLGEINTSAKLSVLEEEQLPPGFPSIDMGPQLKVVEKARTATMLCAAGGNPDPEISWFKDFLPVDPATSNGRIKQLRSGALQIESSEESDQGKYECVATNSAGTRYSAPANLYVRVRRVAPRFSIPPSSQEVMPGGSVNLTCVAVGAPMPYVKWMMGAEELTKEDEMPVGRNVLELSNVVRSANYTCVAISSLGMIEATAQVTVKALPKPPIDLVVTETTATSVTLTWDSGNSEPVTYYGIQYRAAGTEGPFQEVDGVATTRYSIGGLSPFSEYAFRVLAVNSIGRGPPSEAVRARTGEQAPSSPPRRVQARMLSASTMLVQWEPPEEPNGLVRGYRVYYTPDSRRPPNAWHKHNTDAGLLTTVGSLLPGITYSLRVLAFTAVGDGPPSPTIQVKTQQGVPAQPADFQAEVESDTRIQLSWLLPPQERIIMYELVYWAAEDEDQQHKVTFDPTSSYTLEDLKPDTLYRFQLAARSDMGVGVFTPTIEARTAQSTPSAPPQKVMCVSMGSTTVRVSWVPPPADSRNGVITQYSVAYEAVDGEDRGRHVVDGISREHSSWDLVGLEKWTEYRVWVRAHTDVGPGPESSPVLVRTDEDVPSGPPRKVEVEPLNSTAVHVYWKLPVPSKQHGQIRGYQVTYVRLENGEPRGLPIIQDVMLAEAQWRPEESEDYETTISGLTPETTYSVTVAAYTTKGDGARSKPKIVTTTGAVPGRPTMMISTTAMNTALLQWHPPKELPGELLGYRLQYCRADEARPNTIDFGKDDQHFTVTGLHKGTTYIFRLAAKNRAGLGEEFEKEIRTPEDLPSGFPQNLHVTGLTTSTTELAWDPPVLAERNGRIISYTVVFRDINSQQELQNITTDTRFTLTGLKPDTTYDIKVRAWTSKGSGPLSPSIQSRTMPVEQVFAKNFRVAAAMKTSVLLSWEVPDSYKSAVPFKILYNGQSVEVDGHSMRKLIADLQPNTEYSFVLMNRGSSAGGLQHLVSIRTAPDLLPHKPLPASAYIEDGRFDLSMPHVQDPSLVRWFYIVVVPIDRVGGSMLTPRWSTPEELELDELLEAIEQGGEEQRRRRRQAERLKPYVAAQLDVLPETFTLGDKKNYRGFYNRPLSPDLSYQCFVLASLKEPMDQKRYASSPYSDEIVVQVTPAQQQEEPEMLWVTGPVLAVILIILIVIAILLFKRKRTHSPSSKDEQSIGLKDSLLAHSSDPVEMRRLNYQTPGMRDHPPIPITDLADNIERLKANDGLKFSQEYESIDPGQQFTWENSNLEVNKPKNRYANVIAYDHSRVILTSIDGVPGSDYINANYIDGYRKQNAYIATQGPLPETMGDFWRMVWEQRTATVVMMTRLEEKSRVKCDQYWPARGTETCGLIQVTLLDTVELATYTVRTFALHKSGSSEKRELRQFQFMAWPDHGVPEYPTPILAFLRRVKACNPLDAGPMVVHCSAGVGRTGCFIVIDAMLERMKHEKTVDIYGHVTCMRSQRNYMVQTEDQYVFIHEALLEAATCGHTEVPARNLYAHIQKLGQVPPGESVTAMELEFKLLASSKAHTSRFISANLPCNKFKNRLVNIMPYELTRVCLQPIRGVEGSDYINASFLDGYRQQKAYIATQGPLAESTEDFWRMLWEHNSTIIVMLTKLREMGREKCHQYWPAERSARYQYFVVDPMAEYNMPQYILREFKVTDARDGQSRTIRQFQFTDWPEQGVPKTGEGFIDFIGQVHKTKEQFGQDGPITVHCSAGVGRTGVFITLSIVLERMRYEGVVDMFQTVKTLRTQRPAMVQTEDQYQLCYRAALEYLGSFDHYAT
Sequence of Receptor-type tyrosine-protein phosphatase alpha (P18433 whole entry): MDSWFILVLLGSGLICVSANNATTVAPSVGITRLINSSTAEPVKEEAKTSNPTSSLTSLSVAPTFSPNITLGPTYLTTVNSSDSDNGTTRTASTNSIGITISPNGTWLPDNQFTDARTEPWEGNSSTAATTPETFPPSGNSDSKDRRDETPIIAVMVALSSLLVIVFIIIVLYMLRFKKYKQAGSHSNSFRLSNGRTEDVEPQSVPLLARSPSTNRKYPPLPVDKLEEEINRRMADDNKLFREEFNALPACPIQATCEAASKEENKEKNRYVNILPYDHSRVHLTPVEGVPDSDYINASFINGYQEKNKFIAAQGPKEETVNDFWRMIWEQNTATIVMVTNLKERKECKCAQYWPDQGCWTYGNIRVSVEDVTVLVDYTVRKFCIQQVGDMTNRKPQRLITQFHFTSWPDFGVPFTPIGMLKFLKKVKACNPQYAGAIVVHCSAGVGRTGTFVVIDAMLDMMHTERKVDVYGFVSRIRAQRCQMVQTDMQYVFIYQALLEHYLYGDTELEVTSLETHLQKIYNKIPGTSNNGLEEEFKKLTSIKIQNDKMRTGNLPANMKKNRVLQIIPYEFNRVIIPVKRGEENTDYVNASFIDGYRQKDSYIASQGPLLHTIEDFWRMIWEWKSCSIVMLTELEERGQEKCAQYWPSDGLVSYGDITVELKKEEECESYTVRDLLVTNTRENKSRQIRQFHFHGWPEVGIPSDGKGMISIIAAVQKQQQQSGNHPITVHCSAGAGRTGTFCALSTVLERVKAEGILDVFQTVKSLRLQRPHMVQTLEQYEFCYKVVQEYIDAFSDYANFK

Question: Which IC50 [1] does the source give for `O=C(O)c1cc2c(C#Cc3cc(F)cc(F)c3)c(-c3ccccc3)oc2cc1O` here?
Answer: > 10 µM

Question: What about the IC50 (Laforin) of the same compound?
Answer: > 30 µM

Question: And the IC50 [2]?
Answer: > 10 µM

Question: What about the IC50 [3] of the same compound?
Answer: 6.1 µM
